Experimental data from ChEMBL document CHEMBL1145191, “NMR studies reveal structural differences between the gallium and yttrium complexes of DOTA-D-Phe1-Tyr3-octreotide” (J Med Chem, 2005).

Experiment: Half-life time of the compound
Assay type: ADME

GaIII-DOTATOC
T1/2: 68 min
